Measurements taken from US20060110456A1, “Method for biocidal and/or biostatic treatment and compositions therefor” (NATIONAL UNIVERSITY OF SINGAPORE, priority 2004, published 2006).
Counter-ions that a name gives are not always drawn.

What was measured:
[1] = test system: marine bacteria; experiment: Growth assay (absorbance, 96-well plates); type: cell-based, marine bacteria isolated from Singapore fouling communities
Protocol: The dried powder was re-suspended in sterile deionized water and made up to 2 mg ml^−1.
The same bacterial strains were used and cultured the same way as in disc inhibition assay. Cells were harvested by centrifugation at 300 rpm for 10 min. The supernatant was discarded and the pellet re-suspended using sterile seawater collected from St. John's island, Singapore. The concentration of bacterial cells was adjusted to an absorbance of approximately 0.6 using a spectrophotometer (Beckman DU530) at wavelength 600 nm.
The growth with response to the pharmaceuticals was assumed to be proportional to the absorbance of the bacteria. […] To each well 25 μl of each drug solution (concentration adjusted to 100 μg ml^−1) were pipetted into three wells followed by 10 μl of broth and 65 μl of sterile seawater. For wells that were to contain bacteria, 60 μl of sterile seawater was used instead. All wells used for growth studies were prepared in triplicate and inoculated with 5 μl of the bacterial suspension. Blanks consisting of the respective volumes of pharmaceutical with Marine Broth and distilled water, if needed, were prepared in triplicate and inoculated with 5 μl of sterile seawater.
The absorbance (A600) of each well was read in a plate reader (Sunrise Tecan Model F039300) immediately (time=0 hours) and after 1, 2, 3, 4, 20, 23 and 28 hours. Plates were incubated overnight inside a moistened airtight container.
Any changes in absorbance were plotted and compared with control. The mean absorbance (mean bac) from the bacteria was obtained by deducting the absorbance values of blank wells (containing seawater and broth only) from that for the control wells (containing bacteria in seawater and broth only). The absorbance arising from the drugs was obtained from the 0 hr reading for wells containing drugs and bacteria, minus the wells with drugs alone (mean “drug”). The growth assays were repeated three times.

[2] = test system: marine bacteria (ten strains); experiment: Bacteriostatic vs bacteriocidal activity from growth assay: absorbance and CFU counts; type: cell-based, marine bacteria isolated from Singapore fouling communities; details: 50 μg ml^−1
Protocol: Bacteria strains (1, 4, 9, 14, 18, 20, 27, 28, 29, 30) representing a variety of morphological types were used.
For each well, […] of a 100 μg ml^−1 drug solution in sterile distilled water, was added to 45 μl of Marine Broth. Controls for growth consisted of 50 μl of sterile deionized water and 45 μl of marine broth. All wells used for growth studies were prepared in triplicate and inoculated with 5 μl of the bacterial suspension. Blanks consisting of the above volumes of pharmaceutical with Marine Broth and distilled water, were prepared in triplicate and inoculated with 5 μl of sterile seawater. Immediately after adding all the components to the wells for the growth studies, 10 μl was removed and used to inoculate plates of Marine Agar to determine colony-forming units (CFU). The absorbance (A600) of each well was read in the plate reader immediately.
The inoculated plates of Marine Agar were incubated overnight on a rotary shaker (150 rpm) at 30° C. inside a moistened airtight container. After incubation, the absorbance was read again and another 10 μl was removed and used to inoculate Marine Agar plates to determine CFU.
The difference in absorbance over 24 hours for each bacterial strain versus controls and treatments were plotted in FIGS. 3 to 6 for each of the four drugs. The data was analyzed using 1-tailed t-test.

## CN1CCN(CCCN2c3ccccc3Sc3ccc(Cl)cc32)CC1 [PCZ, prochlorperazine maleate]
[1]; 25 μg ml^−1, 25 strains of Table 5
  Number of strains with strongly inhibited growth: 11
[1]; 25 μg ml−1, strain named in the value
  Growth response (absorbance over time): slight growth response of bacteria strain 11
[1]; strain 1 (Rhodovulum), 25 μg ml^−1
  Inhibition of bacterial growth: 0
[1]; strain 2 (Erythrobacter), 25 μg ml^−1
  Inhibition of bacterial growth: 0
[1]; strain 3 (Erythrobacter), 25 μg ml^−1
  Inhibition of bacterial growth: +++ (+++ denotes little or no growth, p < 0.001)
[1]; strain 4 (Bacillus), 25 μg ml^−1
  Inhibition of bacterial growth: +++ (+++ denotes little or no growth, p < 0.001)
[1]; strain 6 (Vibrio), 25 μg ml^−1
  Inhibition of bacterial growth: 0
[1]; strain 7 (Vibrio), 25 μg ml^−1
  Inhibition of bacterial growth: + (+ denotes growth present but inhibited, p < 0.01)
[1]; strain 8 (Bacillus), 25 μg ml^−1
  Inhibition of bacterial growth: +++ (+++ denotes little or no growth, p < 0.001)
[1]; strain 9 (Bacillus), 25 μg ml^−1
  Inhibition of bacterial growth: +++ (+++ denotes little or no growth, p < 0.001)
[1]; strain 10 (Halobacillus), 25 μg ml^−1
  Inhibition of bacterial growth: +++ (+++ denotes little or no growth, p < 0.001)
[1]; strain 11 (Pseudomonas), 25 μg ml^−1
  Inhibition of bacterial growth: + (+ denotes growth present but inhibited, p < 0.01)
[1]; strain 12 (Gordonia), 25 μg ml^−1
  Inhibition of bacterial growth: +++ (+++ denotes little or no growth, p < 0.001)
[1]; strain 13 (Bacillus), 25 μg ml^−1
  Inhibition of bacterial growth: +++ (+++ denotes little or no growth, p < 0.001)
[1]; strain 14 (Vibrio), 25 μg ml^−1
  Inhibition of bacterial growth: 0
[1]; strain 16 (Pseudoalteromonas), 25 μg ml^−1
  Inhibition of bacterial growth: 0
[1]; strain 17 (Gordonia), 25 μg ml^−1
  Inhibition of bacterial growth: +++ (+++ denotes little or no growth, p < 0.001)
[1]; strain 18 (Microbacterium), 25 μg ml^−1
  Inhibition of bacterial growth: +++ (+++ denotes little or no growth, p < 0.001)
[1]; strain 19 (Erythrobacter), 25 μg ml^−1
  Inhibition of bacterial growth: +++ (+++ denotes little or no growth, p < 0.001)
[1]; strain 20, 25 μg ml^−1
  Inhibition of bacterial growth: + (+ denotes growth present but inhibited, p < 0.01)
[1]; strain 21, 25 μg ml^−1
  Inhibition of bacterial growth: 0
[1]; strain 24, 25 μg ml^−1
  Inhibition of bacterial growth: 0
[1]; strain 26, 25 μg ml^−1
  Inhibition of bacterial growth: 0
[1]; strain 27, 25 μg ml^−1
  Inhibition of bacterial growth: + (+ denotes growth present but inhibited, p < 0.01)
[1]; strain 28, 25 μg ml^−1
  Inhibition of bacterial growth: 0
[1]; strain 29, 25 μg ml^−1
  Inhibition of bacterial growth: + (+ denotes growth present but inhibited, p < 0.01)
[1]; strain 30, 25 μg ml^−1
  Inhibition of bacterial growth: +++ (+++ denotes little or no growth, p < 0.001)
[2]
  Killing of bacteria (decrease in absorbance and CFU counts): strain 14 was not killed
[2]; strains 1, 4, 9, 14, 18, 20, 27, 28, 29, 30
  Growth assay: 24-hour change in absorbance for ten strains: only strain numbers 1 and 14 grew in the presence of PCZ
[2]; strain 1 (Rhodovulum)
  Change in CFU count after 24 hours: 0
  Inhibition of bacterial growth: 0
  Result (bacteriostatic / bacteriocidal / no effect): no effect
[2]; strain 4 (Bacillus)
  Inhibition of bacterial growth: +++ (+++ denotes little or no growth, p < 0.001)
  Result (bacteriostatic / bacteriocidal / no effect): bacteriocidal
[2]; strain 9 (Bacillus)
  Inhibition of bacterial growth: +++ (+++ denotes little or no growth, p < 0.001)
  Result (bacteriostatic / bacteriocidal / no effect): bacteriocidal
[2]; strain 14 (Vibrio)
  Change in CFU count after 24 hours: 0
  Inhibition of bacterial growth: 0
  Result (bacteriostatic / bacteriocidal / no effect): no effect
[2]; strain 18 (Microbacterium)
  Inhibition of bacterial growth: +++ (+++ denotes little or no growth, p < 0.001)
  Result (bacteriostatic / bacteriocidal / no effect): bacteriostatic
[2]; strain 20
  Inhibition of bacterial growth: +++ (+++ denotes little or no growth, p < 0.001)
  Result (bacteriostatic / bacteriocidal / no effect): bacteriostatic
[2]; strain 27
  Inhibition of bacterial growth: +++ (+++ denotes little or no growth, p < 0.001)
  Result (bacteriostatic / bacteriocidal / no effect): bacteriocidal
[2]; strain 28
  Inhibition of bacterial growth: +++ (+++ denotes little or no growth, p < 0.001)
  Result (bacteriostatic / bacteriocidal / no effect): bacteriostatic
[2]; strain 29
  Inhibition of bacterial growth: +++ (+++ denotes little or no growth, p < 0.001)
  Result (bacteriostatic / bacteriocidal / no effect): bacteriocidal
[2]; strain 30
  Inhibition of bacterial growth: +++ (+++ denotes little or no growth, p < 0.001)
  Result (bacteriostatic / bacteriocidal / no effect): bacteriostatic
